Values joined by “and” are separate entries in the source; they are usually repeats but may differ in a detail not shown here. Identical values can stand only once. Peptide text beside a SMILES is read from it. * marks the point of attachment. Cbz = O=C(OCc1ccccc1)*
System: mouse lung
Assay: AV.LacZ gene transfer to mouse lung with Z-LLL (X-gal morphometry)
Type: in vivo
Experimental: In vivo studies in mice. Animal studies were performed in accordance with the institutional guidelines of the University of Iowa. To determine the effect of the proteasome inhibitor on AAV mediated gene transfer in mouse lung, 6 week-old BALB/c mice were lightly anesthetized using a methoxyflurane chamber. AV.LacZ (5×10^10 particles) was administered alone or with 400 μM Z-LLL in a 10 μl instillation by nasal aspiration as described by Walters et al. (2000). To prevent unforeseen toxicity of DMSO solvent, the proteasome inhibitor Z-LLL was dissolved in ethanol as a 40 mM stock solution and was included in the viral inoculum at 1% final concentration. Viral infection controls in the absence of Z-LLL also contained a 1% final concentration of ethanol. […] The trachea was incubated and instilled at 10 cm of water pressure with the following solutions in order: PBS, 0.5% glutaraldehyde, 1 mM MgCl2/PBS, and finally X-gal staining reagent for an overnight incubation at room temperature. The X-gal stained mouse lungs were then post fixed in 10% neutral buffered formalin for 48 hours at room temperature and cryopreserved in serial 10%, 20% and 30% sucrose/PBS solutions. Lungs (N=3 for each condition) were embedded in OCT (optimal cutting temperature; Baxter, Warrendale, Pa.) and 15 μm serially sections were analyzed for gene transfer by calculating the percentage of positive cells in the airway epithelium. The diameter of the airway was recorded for classification (>360 μm, 260-350 μm, 160-250 μm, <150 μm) of results following morphometric analysis. Greater than 150 airway cross-sections were quantified for each experimental condition.

[1] = 400 μM Z-LLL intranasal, 150 days

CC(C)C[C@@H](C=O)NC(=O)[C@H](CC(C)C)NC(=O)[C@H](CC(C)C)NC(=O)OCc1ccccc1 [Z-LLL, N-carbobenzoxyl-L-leucinyl-L-leucinyl-L-leucinal] (Cbz-Leu-Leu-Leu-aldehyde)
airway cells transduced by AV.LacZ, average [1]: about 5.88%
airways cells in the smaller bronchioles (<150 mm) expressing β-galactosidase [1]: 1.37±0.41%
range of transgene expression in distal airways [1]: 0 to 4%
range of transgene expression in proximal airways [1]: 5 to 18%
transduction efficiency in larger bronchioles (>350 mm), mean % of the airway epithelium [1]: 10.36±1.63% and 10.36+/−1.63%
transgene expression by X-gal staining (3 and 10 days post infection): no detectable transgene expression
